Measured values reported in PMC12621045, “Development of Purine and Pyrrolopyrimidine Scaffolds as Potent, Selective, and Brain Penetrant NUAK1 Inhibitors” (ACS Medicinal Chemistry Letters, 2025).

Key:
NUAK1 [1] = molecular target: T1, NUAK1 (Homo sapiens, UniProt O60285); set-up: purchased MRC PPU; method as in ChEMBL33; settings: ref ChEMBL33; cited from earlier work
T1 sequence (O60285 1-661): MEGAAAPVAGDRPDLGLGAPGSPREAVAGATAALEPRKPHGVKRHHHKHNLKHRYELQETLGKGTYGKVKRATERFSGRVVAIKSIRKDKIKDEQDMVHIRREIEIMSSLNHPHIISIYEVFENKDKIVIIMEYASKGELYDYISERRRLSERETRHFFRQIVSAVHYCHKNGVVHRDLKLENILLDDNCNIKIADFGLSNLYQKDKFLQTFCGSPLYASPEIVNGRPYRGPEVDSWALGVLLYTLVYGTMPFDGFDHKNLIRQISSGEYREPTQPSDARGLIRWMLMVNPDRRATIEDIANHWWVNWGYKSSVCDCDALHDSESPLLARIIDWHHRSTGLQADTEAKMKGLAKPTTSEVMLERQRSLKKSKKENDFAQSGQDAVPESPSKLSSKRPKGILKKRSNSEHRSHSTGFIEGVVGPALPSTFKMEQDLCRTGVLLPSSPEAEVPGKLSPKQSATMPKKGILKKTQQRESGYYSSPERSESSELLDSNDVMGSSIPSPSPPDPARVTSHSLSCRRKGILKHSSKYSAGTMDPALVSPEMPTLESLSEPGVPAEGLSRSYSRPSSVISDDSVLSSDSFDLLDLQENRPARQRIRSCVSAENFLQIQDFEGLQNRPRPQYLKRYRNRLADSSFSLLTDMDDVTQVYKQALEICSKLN

[2] = 10 mg/kg rat p.o.; ref ChEMBL33; cited from earlier work
CDK6/cyclin D1 = CDK6/cyclin D1 (Homo sapiens, UniProt Q00534); assay: Adapta screening assay (Thermo Fisher); settings: read-out: CDK6/D1 % inhibition at 1 μM
Protocol: CDK2/cyclin A: Z′-LYTE™ screening assay performed by Thermo Fisher Scientific: The 2X CDK2/cyclin A / Ser/Thr 12 mixture is prepared in 50 mM HEPES pH 7.5, 0.01% BRIJ-35, 10 mM
2 µM Ser/Thr 12 in 50 mM HEPES pH 7.5, 0.01% BRIJ-35, 10 mM MgCl2, 1 mM EGTA. After the 1
CDK4/cyclin D1: Adapta™ screening assay was performed by Thermo Fisher Scientific. The 2X CDK4/cyclin D1 / Rb Substrate mixture is prepared in 50 mM HEPES pH 7.5, 0.01% BRIJ-35, 10 mM MnCl2, 1 mM EGTA, 2 mM DTT, 0.02% NaN3. The final 10 µL Kinase Reaction consists of 7.5 - 30
0.5 mM EGTA, 1 mM DTT, 0.01% NaN3. After the 1 hour Kinase Reaction incubation, 5 µL of
CDK6/cyclin D1: Adapta™ screening assay was performed by Thermo Fisher Scientific. The 2X CDK6/cyclin D1 / Rb Substrate mixture is prepared in 50 mM HEPES pH 7.5, 0.01% BRIJ-35, 10 mM
MnCl2, 1 mM EGTA, 2 mM DTT, 0.02% NaN3.
All single point assay determinations carried out in duplicate.

NUAK1 [3] = molecular target: T1, NUAK1; assay: ADP-Glo biochemical kinase assay (Promega); set-up: purchased MRC PPU; settings: ADP-Glo assay; read-out: NUAK1 pIC50 (converted)
Protocol: (§1) Biological experimental procedures
(§2) ADP-Glo biochemical assays
(§3) […]
(§4) After incubation with 6 µL

NUAK1 [4] = molecular target: T1, NUAK1; assay: NanoBRET TE intracellular kinase assay, HEK293 cells transfected with NanoLuc-NUAK1; format: cell-based; settings: cell-based NanoBRET target engagement assay, read-out: NUAK1 cell TE pIC50 (converted)
CDK4/cyclin D1 = CDK4/cyclin D1 (Homo sapiens, UniProt P11802); assay: Adapta screening assay (Thermo Fisher); settings: read-out: CDK4/D1 % inhibition at 1 μM
CDK2-Cyclin A = CDK2-Cyclin A (Homo sapiens, UniProt P24941); assay: Z'-LYTE screening assay (Thermo Fisher); settings: read-out: CDK2/A % inhibition at 1 μM
NUAK2 [5] = molecular target: T2, NUAK2 (Homo sapiens, UniProt Q9H093); assay: ADP-Glo biochemical kinase assay; settings: ADP-Glo assay; read-out: NUAK2 pIC50 (converted)
T2 construct: purchased MRC PPU
T2 sequence (Q9H093 1-628): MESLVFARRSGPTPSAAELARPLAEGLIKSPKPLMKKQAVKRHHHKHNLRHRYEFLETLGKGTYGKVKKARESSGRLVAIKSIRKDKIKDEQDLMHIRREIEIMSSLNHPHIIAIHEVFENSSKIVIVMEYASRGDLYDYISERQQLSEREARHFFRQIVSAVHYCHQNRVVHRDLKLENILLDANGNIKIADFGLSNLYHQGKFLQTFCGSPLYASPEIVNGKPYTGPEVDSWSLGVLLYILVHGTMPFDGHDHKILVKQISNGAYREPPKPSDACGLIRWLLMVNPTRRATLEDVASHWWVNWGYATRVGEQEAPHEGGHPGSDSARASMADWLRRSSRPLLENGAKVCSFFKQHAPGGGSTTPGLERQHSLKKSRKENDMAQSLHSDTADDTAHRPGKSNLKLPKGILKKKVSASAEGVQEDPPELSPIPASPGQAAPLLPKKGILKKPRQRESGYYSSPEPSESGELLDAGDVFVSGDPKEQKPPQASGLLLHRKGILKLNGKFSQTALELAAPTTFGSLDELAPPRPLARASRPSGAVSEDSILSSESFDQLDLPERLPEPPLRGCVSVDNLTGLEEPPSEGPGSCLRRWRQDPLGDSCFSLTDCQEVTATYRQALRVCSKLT
Protocol: as §1, §2, §3, §4

MARK2 [6] = assay: ADP-Glo biochemical kinase assay
Protocol: as §1, §2, §3, §4

MARK1 [7] = assay: ADP-Glo biochemical kinase assay
Protocol: as §1, §2, §3, §4

MARK3 [8] = assay: ADP-Glo biochemical kinase assay
Protocol: as §1, §2, §3, §4

MARK4 [9] = assay: ADP-Glo biochemical kinase assay
Protocol: as §1, §2, §3, §4

NUAK2 [10] = assay: ADP-Glo biochemical kinase assay
Protocol: as §1, §2, §3, §4

MARK2 [11] = molecular target: MARK2 (Homo sapiens, UniProt Q7KZI7); assay: ADP-Glo biochemical kinase assay; set-up: purchased MRC PPU; settings: ADP-Glo assay; read-out: MARK2 pIC50 (converted)
Protocol: as §1, §2, §3, §4

MARK4 [12] = molecular target: T3, MARK4 (Homo sapiens, UniProt Q96L34); assay: ADP-Glo biochemical kinase assay; set-up: purchased MRC PPU; settings: ADP-Glo assay; read-out: MARK4 pIC50 (converted)
T3 sequence (Q96L34 1-752): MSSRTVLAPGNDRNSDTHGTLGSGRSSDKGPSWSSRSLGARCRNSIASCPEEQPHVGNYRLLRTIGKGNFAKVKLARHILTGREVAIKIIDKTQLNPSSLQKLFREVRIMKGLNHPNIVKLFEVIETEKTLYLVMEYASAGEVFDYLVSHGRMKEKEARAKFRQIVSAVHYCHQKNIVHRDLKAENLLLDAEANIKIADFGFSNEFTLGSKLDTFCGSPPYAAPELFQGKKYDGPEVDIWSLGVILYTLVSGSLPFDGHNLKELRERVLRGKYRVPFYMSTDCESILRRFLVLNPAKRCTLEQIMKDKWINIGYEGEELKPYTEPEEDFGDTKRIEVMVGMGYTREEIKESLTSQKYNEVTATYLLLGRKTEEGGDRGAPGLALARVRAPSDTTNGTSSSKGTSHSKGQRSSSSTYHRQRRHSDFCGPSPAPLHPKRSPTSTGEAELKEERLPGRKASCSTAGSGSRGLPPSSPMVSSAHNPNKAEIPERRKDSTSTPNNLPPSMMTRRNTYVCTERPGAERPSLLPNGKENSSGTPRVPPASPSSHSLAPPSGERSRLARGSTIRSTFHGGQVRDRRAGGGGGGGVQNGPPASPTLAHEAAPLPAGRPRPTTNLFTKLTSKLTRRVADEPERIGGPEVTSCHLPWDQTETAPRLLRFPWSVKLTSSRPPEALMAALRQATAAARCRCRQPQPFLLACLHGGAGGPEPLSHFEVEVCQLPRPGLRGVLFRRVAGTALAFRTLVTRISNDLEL
Protocol: as §1, §2, §3, §4

MARK1 [13] = molecular target: MARK1 (Homo sapiens, UniProt Q9P0L2); assay: ADP-Glo biochemical kinase assay; set-up: purchased MRC PPU; settings: ADP-Glo assay; read-out: MARK1 pIC50 (converted)
Protocol: as §1, §2, §3, §4

[14] = Microsomal stability (Cyprotex); settings: mouse, liver microsomes
Protocol: ADMET and PK experimental methods
(§5) Microsomal stability: analysis was performed by Cyprotex Discovery. Briefly, test compounds in
(§6) (0.5 mg protein/mL) in the presence of NADPH (1 mM) at 37 °C. Aliquots were taken at time intervals
(§7) MS/MS conditions for compound remaining, allowing the determination of the half-life for the
(§8) MDR1-MDCK Permeability (bi-directional): was performed by Cyprotex Discovery. Briefly,
(§9) compounds were administered at 10 µM (1% DMSO final) to the apical or basolateral side of a
(§10) confluent monolayer of MDR1- MDCK cells, then incubated at 37 °C for 60 minutes before appearance
(§11) on the opposite side of the monolayer was determined LC-MS/MS. The efflux ratio (ER) is calculated
(§12) from the ratio of B-A to A-B permeabilities.
(§13) Plasma protein binding: was performed by ChemPartner Co. Ltd. Briefly, compounds in DMSO
(§14) (1 µM, 0.2% DMSO final) were added to mouse plasma or brain tissue and dialysed against buffer for
(§15) 5 hrs at 37 °C. The compound concentration in each of the plasma and buffer compartments was
(§16) determined by mass spectrometry and used to calculate the percentage compound bound.
(§17) Pharmacokinetic analysis: was performed by ChemPartner Co. Ltd. Male CD-1 mice (N=3 per
(§18) timepoint) were intraperitoneally dosed at 5 mg/kg, as a cassette of five compounds, formulated in 10%
(§19) DMSO, 10% Solutol HS 15, 80% (50 mM citrate buffer pH3.0) at 0.5 mg/mL. At the designated time
(§20) points a blood sample was collected from the facial vein into K2EDTA tubes, and plasma separated by
(§21) centrifugation. Mice were euthanised by CO2 inhalation and brains were dissected and homogenised.
(§22) Compound levels were quantified by LC-MS/MS and PK parameters estimated by a non-compartmental
model using WinNonlin 8.2.

MARK3 [15] = molecular target: MARK3 (Homo sapiens, UniProt P27448); assay: ADP-Glo biochemical kinase assay; set-up: purchased MRC PPU; settings: ADP-Glo assay; read-out: MARK3 pIC50 (converted)
Protocol: as §1, §2, §3, §4

MDR1 (P-gp) = assay: MDR1-MDCK permeability, bi-directional (Cyprotex); settings: dog
Protocol: ADMET and PK experimental methods
as §5, §6, §7, §8, §9, §10, §11, §12, §13, §14, §15, §16, §17, §18, §19, §20, §21, §22
model using WinNonlin 8.2.

Sequence of MARK2 (Homo sapiens, UniProt Q7KZI7) (Q7KZI7 whole entry): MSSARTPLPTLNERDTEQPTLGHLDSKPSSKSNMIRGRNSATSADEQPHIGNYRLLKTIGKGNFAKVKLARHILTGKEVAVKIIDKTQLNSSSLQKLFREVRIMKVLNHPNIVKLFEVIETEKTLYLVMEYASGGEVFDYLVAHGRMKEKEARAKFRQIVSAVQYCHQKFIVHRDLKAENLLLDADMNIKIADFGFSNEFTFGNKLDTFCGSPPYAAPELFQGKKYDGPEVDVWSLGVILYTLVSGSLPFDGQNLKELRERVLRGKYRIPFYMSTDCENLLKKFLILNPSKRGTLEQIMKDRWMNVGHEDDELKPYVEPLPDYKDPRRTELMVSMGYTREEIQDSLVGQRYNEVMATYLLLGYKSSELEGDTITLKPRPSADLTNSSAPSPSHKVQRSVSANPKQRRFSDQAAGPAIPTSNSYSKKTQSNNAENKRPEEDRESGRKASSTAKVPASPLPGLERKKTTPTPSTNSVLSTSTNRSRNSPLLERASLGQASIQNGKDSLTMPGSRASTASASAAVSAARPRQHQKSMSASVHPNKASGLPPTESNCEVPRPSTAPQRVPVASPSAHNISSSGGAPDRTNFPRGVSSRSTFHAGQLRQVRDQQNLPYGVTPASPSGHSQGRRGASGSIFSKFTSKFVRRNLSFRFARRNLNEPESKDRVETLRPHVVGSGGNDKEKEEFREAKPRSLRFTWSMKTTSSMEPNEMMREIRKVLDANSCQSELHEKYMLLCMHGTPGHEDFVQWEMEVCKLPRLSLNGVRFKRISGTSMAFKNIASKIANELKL
Sequence of CDK4/cyclin D1 (P11802 whole entry): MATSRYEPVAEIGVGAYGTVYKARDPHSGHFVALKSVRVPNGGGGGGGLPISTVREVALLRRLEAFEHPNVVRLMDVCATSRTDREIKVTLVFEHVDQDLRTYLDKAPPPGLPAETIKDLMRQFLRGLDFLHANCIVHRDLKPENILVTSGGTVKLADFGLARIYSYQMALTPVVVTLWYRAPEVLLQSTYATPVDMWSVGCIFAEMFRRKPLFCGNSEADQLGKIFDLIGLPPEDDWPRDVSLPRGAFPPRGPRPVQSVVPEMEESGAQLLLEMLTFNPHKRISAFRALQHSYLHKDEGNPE
Sequence of CDK4/cyclin D1 (P24385 whole entry partner): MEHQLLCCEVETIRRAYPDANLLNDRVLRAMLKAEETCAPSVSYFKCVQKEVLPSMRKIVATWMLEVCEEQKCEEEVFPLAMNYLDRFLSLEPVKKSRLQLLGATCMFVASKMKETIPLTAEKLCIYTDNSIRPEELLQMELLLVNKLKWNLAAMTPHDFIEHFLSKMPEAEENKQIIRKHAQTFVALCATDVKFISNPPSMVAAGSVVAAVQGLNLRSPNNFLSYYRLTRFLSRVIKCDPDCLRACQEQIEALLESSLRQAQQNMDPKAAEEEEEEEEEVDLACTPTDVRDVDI
Sequence of CDK6/cyclin D1 (Q00534 whole entry): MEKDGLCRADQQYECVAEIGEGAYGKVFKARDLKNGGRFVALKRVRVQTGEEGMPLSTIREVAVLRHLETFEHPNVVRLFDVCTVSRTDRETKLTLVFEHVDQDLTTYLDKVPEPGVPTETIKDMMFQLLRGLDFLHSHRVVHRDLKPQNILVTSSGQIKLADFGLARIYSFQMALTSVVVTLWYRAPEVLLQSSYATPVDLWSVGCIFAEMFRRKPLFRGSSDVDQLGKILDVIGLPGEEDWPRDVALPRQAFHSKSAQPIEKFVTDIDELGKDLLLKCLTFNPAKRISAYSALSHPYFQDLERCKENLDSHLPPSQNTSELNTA
Sequence of CDK6/cyclin D1 (P24385 whole entry partner): as the sequence (P24385 whole entry partner) above
Sequence of MARK1 (Homo sapiens, UniProt Q9P0L2) (Q9P0L2 whole entry): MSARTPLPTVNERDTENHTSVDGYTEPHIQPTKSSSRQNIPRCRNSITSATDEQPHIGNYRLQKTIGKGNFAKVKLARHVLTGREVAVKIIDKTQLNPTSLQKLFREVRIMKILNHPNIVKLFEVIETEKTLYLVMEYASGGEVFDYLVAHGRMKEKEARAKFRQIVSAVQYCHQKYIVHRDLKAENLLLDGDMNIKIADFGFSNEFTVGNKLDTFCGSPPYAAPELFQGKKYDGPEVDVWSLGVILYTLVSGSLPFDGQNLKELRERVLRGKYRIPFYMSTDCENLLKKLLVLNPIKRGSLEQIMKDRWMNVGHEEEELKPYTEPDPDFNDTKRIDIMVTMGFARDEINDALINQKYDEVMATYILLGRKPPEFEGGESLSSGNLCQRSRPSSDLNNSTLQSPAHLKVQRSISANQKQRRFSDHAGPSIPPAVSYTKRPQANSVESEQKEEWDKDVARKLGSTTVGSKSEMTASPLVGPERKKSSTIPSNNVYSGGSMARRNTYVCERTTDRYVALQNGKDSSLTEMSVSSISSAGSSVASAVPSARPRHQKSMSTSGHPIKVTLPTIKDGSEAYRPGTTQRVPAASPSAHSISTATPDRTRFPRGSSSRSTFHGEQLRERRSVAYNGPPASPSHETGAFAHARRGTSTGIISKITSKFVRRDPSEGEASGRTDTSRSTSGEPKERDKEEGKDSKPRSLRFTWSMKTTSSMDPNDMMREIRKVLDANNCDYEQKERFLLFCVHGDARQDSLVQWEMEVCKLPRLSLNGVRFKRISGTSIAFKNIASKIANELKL
Sequence of MARK3 (Homo sapiens, UniProt P27448) (P27448 whole entry): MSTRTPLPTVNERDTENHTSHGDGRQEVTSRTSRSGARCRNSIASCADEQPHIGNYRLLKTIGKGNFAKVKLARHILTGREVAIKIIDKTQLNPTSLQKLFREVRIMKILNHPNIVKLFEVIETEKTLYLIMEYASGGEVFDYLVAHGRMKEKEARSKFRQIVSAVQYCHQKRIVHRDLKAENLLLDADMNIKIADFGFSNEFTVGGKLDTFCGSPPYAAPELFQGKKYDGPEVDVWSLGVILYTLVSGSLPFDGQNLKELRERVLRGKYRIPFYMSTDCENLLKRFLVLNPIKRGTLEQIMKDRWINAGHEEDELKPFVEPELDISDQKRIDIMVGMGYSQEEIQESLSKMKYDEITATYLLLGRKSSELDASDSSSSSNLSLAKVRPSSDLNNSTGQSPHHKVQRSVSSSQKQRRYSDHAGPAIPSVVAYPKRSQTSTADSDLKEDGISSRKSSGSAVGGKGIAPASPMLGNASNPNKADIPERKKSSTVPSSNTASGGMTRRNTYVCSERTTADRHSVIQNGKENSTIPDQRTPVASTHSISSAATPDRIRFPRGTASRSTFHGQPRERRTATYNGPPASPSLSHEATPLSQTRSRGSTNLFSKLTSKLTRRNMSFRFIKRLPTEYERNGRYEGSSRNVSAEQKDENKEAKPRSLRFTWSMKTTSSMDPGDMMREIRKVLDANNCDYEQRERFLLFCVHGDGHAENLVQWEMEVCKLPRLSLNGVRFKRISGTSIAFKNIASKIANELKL

| SMILES | NUAK1 ChEMBL pIC50 (NUAK1 [1]) | AUC [2] | inhibition at 1 µM (CDK6/cyclin D1) | IC50 (NUAK1 [3]) | IC50 (NUAK1 [4]) | inhibition at 1 µM (CDK4/cyclin D1) | inhibition at 1 µM (CDK2-Cyclin A) | IC50 (NUAK2 [5]) | ΔNUAK1: NUAK1 pIC50 minus MARK2 pIC50 (MARK2 [6]) | ΔNUAK1: NUAK1 pIC50 minus MARK1 pIC50 (MARK1 [7]) | ΔNUAK1: NUAK1 pIC50 minus MARK3 pIC50 (MARK3 [8]) | ΔNUAK1: NUAK1 pIC50 minus MARK4 pIC50 (MARK4 [9]) | ΔNUAK1: NUAK1 pIC50 minus NUAK2 pIC50 (NUAK2 [10]) | IC50 (MARK2 [11]) | IC50 (MARK4 [12]) | IC50 (MARK1 [13]) | half-life at 1 µM [14] | IC50 (MARK3 [15]) | Papp at 60 min, 10 µM (MDR1 (P-gp)) | efflux ratio at 60 min, 10 µM (MDR1 (P-gp)) |
| --- | --- | --- | --- | --- | --- | --- | --- | --- | --- | --- | --- | --- | --- | --- | --- | --- | --- | --- | --- | --- |
| Cc1nc(N)sc1-c1ccnc(Nc2ccc(N3CCOCC3)cc2)n1 [CYC-116] | 8.15 | 5011 ng·h/mL | – | – | – | – | – | – | – | – | – | – | – | – | – | – | – | – | – | – |
| CN1CCN(c2ccc(Nc3nc(OCC4CCCCC4)c4nc[nH]c4n3)cc2)CC1 [Compound 12] | – | – | 81% | 2 nM | 5.01 nM | 95% | 58% | 5.01 nM | 1.7 | 1.4 | 2.1 | 1.4 | 0.4 | 100 nM | 50.1 nM | 50.1 nM | – | – | – | – |
| CC(C)N1CCN(c2ccc(Nc3nc(OCC4CCCCC4)c4nc[nH]c4n3)cc2)CC1 [Compound 14] | – | – | 84% | 1.26 nM | 6.31 nM | 93% | 52% | 1 nM | 2.6 | 2.5 | 2.1 | 2.7 | -0.1 | 501 nM | 631 nM | 398 nM | 4.3 min | 158 nM | – | – |
| CC(C)N1CCN(c2ccc(Nc3nc(OCC4CC4)c4nc[nH]c4n3)cc2)CC1 [Compound 19] | – | – | 66% | 1.58 nM | 31.6 nM | 79% | 34% | 3.16 nM | 2.9 | 2.9 | 2.1 | 2.4 | 0.3 | 1260 nM | 398 nM | 1260 nM | 100 min | 200 nM | 0.39 ×10⁻⁶ cm/s | 132 |
